This is an account of results in patent US20030144204A1, “Akt-based inducible survival switch” (Baylor College of Medicine, priority 2001, published 2003).

Test [1] has as its system caspase-3 and PARP in Jurkat.iAkt cells. As to the kind of experiment: Caspase-3 activation and PARP cleavage by immunoblotting.
Experimental: Next, caspase-3 activation and PARP substrate cleavage were measured by immunoblotting.
Another test has as its system F3-ΔPH.Akt kinase. The test is described as follows: Immunoprecipitation and in vitro Akt kinase assay (GSK3α/β crosstide). The test is classed as biochemical. Conditions: Jurkat.iAkt serum starved 24 hours, treated 30 min, anti-HA immunoprecipitate. The method, then: Jurkat.iAktb were serum starved for 24 hours followed by treatment with AP22783 or serum for 30 min. Cells were then lysed in a lysis buffer provided with the Akt Kinase Assay kit (Cell Signaling, Beverly, Mass.), and Fpk3-ΔPH.AKT-E was immunoprecipitated with polyclonal anti-HA antibody. Antibody-antigen complexes were washed three times in lysis buffer and once in kinase buffer. In vitro kinase assays for Akt were performed using a GSK3α/β “crosstide”. The extent of crosstide phosphorylation was determined by anti-GSKα/β immunoblotting according to the manufacturer's protocol.
To further measure the induction of Akt enzymatic activity, Jurkat.iAkt cells were serum starved for 24 hours and thereafter treated with AP22783 or serum for 30 min. Chimeric F3-ΔPH.Akt.-kinase was immunoprecipitated with the anti-HA antibody and Akt kinase activity was measured using an in vitro kinase assay that uses a GSK3α/β “crosstide” as a substrate. The level of phosphorylated GSK3 crosstides was determined by immunoblotting with phospho-specific antibody against GSK3-α21/β9.

The test system of another test is Jurkat.iAkt cells. As to the kind of experiment: Apoptosis by propidium iodide staining and flow cytometry (hypodiploid cells). It counts as cell-based, human. Conditions: for etoposide-induced cell death: etoposide 0.3-100 μM, 12 hours. How it is done: Jurkat.iAkt were serum starved for 24 hours followed by pre-treatment with AP22783 in 0, 2 or 10% FBS for 40 min. After incubation with apoptosis-inducing stimuli for the periods indicated, cells were harvested and washed twice in ice-cold PBS and fixed in 70% ethanol. Cells were stained in 50 μg/ml propidium iodide and 100 μg/mlRNase A for 30 min at 37° C., and hypodiploid cells were quantitated by flow cytometry using a Beckman-Coulter EPICS XL-MCL.
Jurkat.iAkt cells were given various apoptotic insults in the presence or absence of rapalogs. Initially, the protective effects of iAkt were studied on staurosporine (STS)-induced apoptosis. […] Following serum starvation for 24 hours, Jurkat.iAkt cells were treated with 0, 0.5, or 2.0 μM STS with or without AP22783 (400 nM) for 6 hours in the absence of serum. Cell death was monitored using propidium iodide (PI) staining and flow cytometry (FCM) by quantitation of subdiploid cells.
The effects of AP22783 treatment following PI3K inhibition of Jurkat.iAkt cell were studied.
Finally, the anti-apoptotic effects of iAkt on protection from direct DNA damaging agents were examined. The anti-tumor agent, etoposide (VP16), is widely used as a chemotherapeutic drug that works by inhibiting DNA topoisomerase II, which can induce apoptosis in a variety of cell types. […] Again, the experiments were carried out in two different culture conditions with low or high FBS levels.

A further test deals with Akt (T308 or S473 site). The test is described as follows: Western blot of Akt phosphorylation in transfected 293T cells. The test is classed as cell-based, human. Conditions: M-FRB12 plus F3-ΔPH.Akt, serum starved 24 hours, as early as 30 min after drug addition. The method, then: 293T cells seeded in 6-well plates were transiently transfected with 2 μg of different expression constructs in 6 μl FuGENE6 (Boehringer-Mannheim, Indianapolis, Ind.) in Opti-MEM-I medium for 24 hours followed by serum starvation for an additional 24 hours. Cells were then treated with different agents and harvested at different time points. After washing (2×) in ice-cold PBS, cell pellets were lysed in RIPA buffer containing protease inhibitors (CytoSignal, Irvine, Calif.). Equal amounts of protein from each sample were separated on 10% SDS-PAGE gels and transferred to PVDF membrane (Amersham Pharmacia Biotech, Piscataway, N.J.). Phospho-specific antibodies against Akt (T308 or S473 site) (Cell Signaling, Beverly, Mass.) were used for measuring Akt phosphorylation, and the signal was detected by AP-conjugated secondary antibodies (NEB, Beverly, Mass.) and CDP-Star chemiluminescence reagent (NEN life science, Boston, Mass.).
Briefly, 293T cells were transiently co-transfected with M-FRB1 2 and F3-ΔPH.Akt expression plasmids. After 24 hours, transfected cells were serum starved for another 24 hours and then treated with AP22783.

The next test concerns endogenous Akt and iAkt. As to the kind of experiment: Akt phosphorylation in Jurkat.iAkt cells after kinase inhibitor pretreatment. Conditions: 30 min inhibitor pretreatment, then AP22783 30 min. The test is classed as cell-based, human. How it is done:
Jurkat.iAkt cells were serum starved for 24 hours followed by 30 min pretreatment with PI3K inhibitors, wortmannin and LY294002, or MEK inhibitor, PD98059, as a control. After inhibitor pretreatment, AP22783 was added to the media for another 30 min to mobilize membrane recruitment of iAkt.

In another test the test system is NF-κB. As to the kind of experiment: NF-κB/SEAP reporter assay in Jurkat-TAg cells. It counts as cell-based, human. Conditions: R0318220 1 μM.

On to `O=C(O)COc1ccccc1O` [AP22783], for which, in test [1] (with AP22783), the “STS-induced caspase-3 activation” value is “blocked”, the “high-dose STS-induced PARP cleavage” value was “reduced” and the “low-dose STS-induced PARP cleavage” value is on record as “blocked”. In the test with F3-ΔPH.Akt kinase, the “Akt kinase activity (GSK3 crosstide phosphorylation)” value is given as “associated with GSK3 phosphorylation”. Moreover, in the test with Jurkat.iAkt cells (2 μM STS with AP22783 400 nM, 6 hours, no serum, without background correction), the apoptotic cells is listed as 17%. In addition, in the test with Jurkat.iAkt cells (AP22783 400 nM with wortmannin or LY294002, 2% or 10% FBS, 9 hours), the “PI3K inhibitor-induced cell death” value is given as “almost totally blocked”. Besides, the CH-11-triggered apoptosis entry in the test with Jurkat.iAkt cells (AP22783 400 nM, 2% or 10% FBS, 6 hours) was “rescued cells from CH-11-triggered apoptosis”. In addition, the etoposide-induced cell death result in the test on Jurkat.iAkt cells (AP22783 400 nM, high FBS) is reported as “reduced etoposide-induced cell death efficiently”. Further, the etoposide-induced cell death result with Jurkat.iAkt cells (AP22783 400 nM, low FBS) was “lesser, but reproducible level of protection”. For the same molecule, in the test on Jurkat.iAkt cells (low-dose STS (0.5 μM) with AP22783 400 nM, 6 hours, no serum), the “STS-induced toxicity (apoptosis)” value was “fully blocked”. Besides, the “phosphorylation of iAkt at S473 and T308” value with Akt (T308 or S473 site) is recorded as “greatly stimulated”.

In the case of `COc1cccc(-c2cc(=O)c3ccccc3o2)c1N` [PD98059], in the test on endogenous Akt and iAkt, the “endogenous Akt phosphorylation at T308” value was “no discernable effect” and the iAkt phosphorylation result is on record as “no discernable effect”.

For the molecule `Cn1cc(C2=C(c3cn(CCCSC(=N)N)c4ccccc34)C(=O)NC2=O)c2ccccc21` [R0318220], the “NF-κB activation by M-Akt plus PKC” value with NF-κB is “complete inhibition of NF-κB”.

On to `CN[C@@H]1C[C@H]2O[C@@](C)([C@@H]1OC)n1c3ccccc3c3c4c(c5c6ccccc6n2c5c31)C(=O)NC4` [STS, staurosporine], for which the procaspase-3 level entry in test [1] (STS at high-dose) is on record as “significant reduction of procaspase-3”. In addition, the PARP cleavage result in test [1] (STS at low- and high-dose) is reported as “dramatic PARP cleavage”. For the same molecule, the apoptotic cells in the test with Jurkat.iAkt cells (2 μM STS, 6 hours, no serum, without AP22783, without background correction) worked out at 36%; with Jurkat.iAkt cells (low-dose STS (0.5 μM), 6 hours, no serum, without AP22783), 19.4%. In addition, the cell death result with Jurkat.iAkt cells (STS 0, 0.5 or 2.0 μM, 6 hours, no serum) is recorded as “induced cell death in a dose-response manner”.
